Test results reported in patent US20040121021A1, “Determination of adequate ozone disinfection” (priority 2002, published 2004).
Values belong to the compound of their own block, whether it stands above or below them.

Assay: Bleaching of dye-impregnated filter paper strips in flowing ozonated water
Type: physicochemical
Source text: Each kind of indicator-impregnated substrate, or Ct strip, must be tested to empirically determine the Ct value range most suitable for that particular combination of indicator and substrate. To empirically determine the Ct value range for a Ct strip having a particular indicator impregnated onto a particular substrate having particular properties, the particular Ct strip is exposed to known concentrations of ozone over incremental periods of time. The resulting color of the substrate is recorded after given increments of time until the color is entirely bleached out or until a maximum desired exposure time has passed. The color of the Ct strip, after each time increment of immersion in a known concentration of ozone, is an accurate measure of the Ct value for an exposed surface. The resulting colors are recorded for comparison use, as on a color chart, for that particular combination of indicator and substrate. Strips of filter paper ½″×2″ were cut and immersed in a 1000 ppm solution of Solvent Green 3 (1,4-bis[(4-methylphenyl)amino]-9,10-anthracenedione) in acetone for 5 seconds at room temperature. When dyed in this manner, strips were initially an extremely dark green and dried to a medium green color. When submerged in a flowing bath of 3 ppm ozone dissolved in water, bleaching was observed. […] Strips of filter paper ½″×2″ were cut and immersed in a 1000 ppm solution of Solvent Red 23 in acetone for 5 seconds at room temperature. When submerged in a flowing bath of 5 ppm ozone dissolved in water, bleaching was observed. […] Strips of filter paper ½″×2″ were cut and immersed in a 1000 ppm solution of Solvent Violet 13 in acetone for 5 seconds at room temperature. When submerged in a flowing bath of 5 ppm ozone dissolved in water, bleaching was observed. […] Strips of filter paper ½″×2″ were cut and immersed in a 500 ppm solution of Solvent Yellow 33 in acetone for 5 seconds at room temperature. When submerged in a flowing bath of 6 ppm ozone dissolved in water, bleaching was observed.

- color loss (filter paper strip dyed in 1000 ppm Solvent Red 23 solution in acetone, flowing bath of 5 ppm ozone dissolved in water, after 90 minutes): ~30%
Compound: Oc1ccc2ccccc2c1N=Nc1ccc(N=Nc2ccccc2)cc1 [Solvent Red 23]

- color loss (filter paper strip dyed in 500 ppm solution in acetone, flowing bath of 6 ppm ozone dissolved in water, after 20 minutes): complete color loss
Compound: O=C1c2ccccc2C(=O)C1c1ccc2ccccc2n1 [Solvent Yellow 33]

- color loss (filter paper strip dyed in 1000 ppm solution in acetone, flowing bath of 3 ppm ozone dissolved in water, after 90 minutes): ~40%
Compound: Cc1ccc(Nc2ccc(Nc3ccc(C)cc3)c3c2C(=O)c2ccccc2C3=O)cc1 [Solvent Green 3, 1,4-bis[(4-methylphenyl)amino]-9,10-anthracenedione]

- color loss (filter paper strip dyed in 1000 ppm Solvent Red 23 solution in acetone, flowing bath of 5 ppm ozone dissolved in water, after 240 minutes): ~75%
Compound: Cc1ccc(Nc2ccc(O)c3c2C(=O)c2ccccc2C3=O)cc1 [Solvent Violet 13]
